From ChEMBL document CHEMBL3414549, “Structural investigation of B-Raf paradox breaker and inducer inhibitors” (J Med Chem, 2015) come the findings set out here.

Activity calls are given as the source filed them. No cut-off for these calls is given here. Where only a bound is given, the exact number is not on record here.

For assay [1], the target named is T1, Serine/threonine-protein kinase B-raf (Homo sapiens, UniProt P15056). Description: Binding affinity to recombinant human full-length wild type B-Raf (unknown origin) assessed as IGSGSFGTVYK accessible protease cleavage peptide level by LC-MS/MS analysis relative to control.
Target sequence in this assay (P15056 whole entry): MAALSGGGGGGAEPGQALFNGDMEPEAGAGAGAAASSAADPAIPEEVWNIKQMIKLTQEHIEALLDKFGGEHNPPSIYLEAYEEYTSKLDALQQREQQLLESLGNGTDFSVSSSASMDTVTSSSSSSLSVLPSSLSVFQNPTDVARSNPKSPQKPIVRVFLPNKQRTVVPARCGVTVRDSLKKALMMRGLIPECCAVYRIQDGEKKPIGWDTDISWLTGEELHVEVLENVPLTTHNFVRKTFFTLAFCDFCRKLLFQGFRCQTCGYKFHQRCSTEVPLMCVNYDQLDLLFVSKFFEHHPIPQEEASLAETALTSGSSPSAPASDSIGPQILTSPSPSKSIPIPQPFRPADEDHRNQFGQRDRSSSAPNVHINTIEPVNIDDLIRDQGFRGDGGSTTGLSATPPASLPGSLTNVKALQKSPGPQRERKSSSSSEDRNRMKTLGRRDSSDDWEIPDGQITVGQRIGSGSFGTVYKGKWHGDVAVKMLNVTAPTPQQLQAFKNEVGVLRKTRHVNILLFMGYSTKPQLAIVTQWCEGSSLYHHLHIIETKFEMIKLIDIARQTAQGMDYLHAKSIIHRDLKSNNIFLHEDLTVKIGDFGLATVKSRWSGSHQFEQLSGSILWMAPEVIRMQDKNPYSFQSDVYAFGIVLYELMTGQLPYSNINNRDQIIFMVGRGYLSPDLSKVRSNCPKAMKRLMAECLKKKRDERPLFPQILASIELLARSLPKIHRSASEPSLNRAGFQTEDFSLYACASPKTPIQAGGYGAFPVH
The target of assay [2] is T1, Serine/threonine-protein kinase B-raf. Kind of assay: Binding affinity to recombinant human full-length wild type B-Raf (unknown origin) assessed as VFLPNK accessible protease cleavage peptide level by LC-MS/MS analysis relative to control.
Target sequence in this assay (P15056 whole entry): as above
For assay [3] the target is unchanged. Kind of assay: Binding affinity to recombinant human full-length wild type B-Raf (unknown origin) assessed as IGDFGLATVK accessible protease cleavage peptide level by LC-MS/MS analysis relative to control.
Target sequence in this assay (P15056 whole entry): as above
Assay [4] shares this target. Description: Binding affinity to recombinant human full-length wild type B-Raf (unknown origin) assessed as TPIQAGGYGAFPVH accessible protease cleavage peptide level by LC-MS/MS analysis relative to control.
Target sequence in this assay (P15056 whole entry): as above
For assay [5] the target is unchanged. Kind of assay: Binding affinity to recombinant human full-length wild type B-Raf (unknown origin) assessed as 7VVPAR accessible protease cleavage peptide level by LC-MS/MS analysis relative to control.
Target sequence in this assay (P15056 whole entry): as above
Assay [6] shares this target. Kind of assay: Binding affinity to recombinant human full-length wild type B-Raf (unknown origin) assessed as QTAQGMDYLHAK accessible protease cleavage peptide level by LC-MS/MS analysis relative to control.
Target sequence in this assay (P15056 whole entry): as above
The target of assay [7] is T2, Serine/threonine-protein kinase B-raf (Homo sapiens, UniProt P15056, V600E). Kind of assay: Binding affinity to B-Raf V600E mutant (unknown origin).
T2 sequence (P15056 2-766 V600E limits assumed): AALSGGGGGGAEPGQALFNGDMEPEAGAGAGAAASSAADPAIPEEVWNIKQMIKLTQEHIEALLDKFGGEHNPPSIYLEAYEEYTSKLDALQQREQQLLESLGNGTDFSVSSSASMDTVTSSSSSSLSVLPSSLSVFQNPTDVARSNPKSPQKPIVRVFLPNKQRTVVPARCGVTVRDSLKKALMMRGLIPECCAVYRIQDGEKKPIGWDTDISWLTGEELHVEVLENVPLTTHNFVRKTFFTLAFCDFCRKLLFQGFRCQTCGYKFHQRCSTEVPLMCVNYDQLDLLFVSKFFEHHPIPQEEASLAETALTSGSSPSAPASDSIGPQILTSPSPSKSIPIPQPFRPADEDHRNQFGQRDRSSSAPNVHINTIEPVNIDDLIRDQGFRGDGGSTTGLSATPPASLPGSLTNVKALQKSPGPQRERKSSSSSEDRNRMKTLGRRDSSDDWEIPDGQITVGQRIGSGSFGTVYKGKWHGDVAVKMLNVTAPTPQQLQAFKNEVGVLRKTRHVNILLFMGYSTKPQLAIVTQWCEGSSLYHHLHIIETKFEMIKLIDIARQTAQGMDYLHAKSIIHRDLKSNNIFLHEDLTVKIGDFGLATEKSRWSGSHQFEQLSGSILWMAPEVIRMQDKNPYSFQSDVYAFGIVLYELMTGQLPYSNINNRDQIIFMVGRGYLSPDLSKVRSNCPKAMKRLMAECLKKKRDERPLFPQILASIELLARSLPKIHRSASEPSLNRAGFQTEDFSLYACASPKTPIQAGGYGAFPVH
Assay [8] addresses T1, Serine/threonine-protein kinase B-raf. Kind of assay: Activation of tumorigenic wild type B-Raf in human IPC-298 cells with Ras mutation assessed as phosphorylation of ERK. The class given is cell-based.
Target sequence in this assay (P15056 2-766 limits assumed, change not shown): as the sequence (P15056 2-766 V600E limits assumed) above, with E599V counted along it
For assay [9] the target is unchanged. Kind of assay: Binding affinity to recombinant human full-length wild type B-Raf (unknown origin) assessed as SPQKPIVR accessible protease cleavage peptide level by LC-MS/MS analysis relative to control.
Assay [10] shares this target. Description: Binding affinity to recombinant human full-length wild type B-Raf (unknown origin) assessed as SIPIPQPFRPADEDHR accessible protease cleavage peptide level by LC-MS/MS analysis relative to control.
For assay [11] the target is unchanged. Description: Binding affinity to recombinant human full-length wild type B-Raf (unknown origin) assessed as SASEPSLNR accessible protease cleavage peptide level by LC-MS/MS analysis relative to control.
For assay [12] the target is unchanged. Kind of assay: Binding affinity to recombinant human full-length wild type B-Raf (unknown origin) assessed as GYLSPDLSK accessible protease cleavage peptide level by LC-MS/MS analysis relative to control.
Assay [13] shares this target. Description: Binding affinity to recombinant human full-length wild type B-Raf (unknown origin) assessed as SNNIFLHEDLTVK accessible protease cleavage peptide level by LC-MS/MS analysis relative to control.
For another assay, the system named is SW-620. Description: Inhibition of cell proliferation in human SW620 cells expressing wild type B-Raf after 96 hrs by MTT assay. It counts as functional, cell-based. (Tetrazolium assays rely on reduction of a dye to a coloured formazan, in cell work by metabolically active cells.)
The target of assay [14] is T2, Serine/threonine-protein kinase B-raf. Description: Inhibition of B-Raf V600E mutant in human A375 cells assessed as phosphorylation of ERK. It counts as cell-based, A-375.
The target of assay [15] is T1, Serine/threonine-protein kinase B-raf. Kind of assay: Binding affinity to recombinant human full-length wild type B-Raf (unknown origin) assessed as DSLKK accessible protease cleavage peptide level by LC-MS/MS analysis relative to control.
For assay [16] the target is unchanged. Description: Binding affinity to recombinant human full-length wild type B-Raf (unknown origin) assessed as LIDIAR accessible protease cleavage peptide level by LC-MS/MS analysis relative to control.
Assay [17] has the same target. Description: Binding affinity to recombinant human full-length wild type B-Raf (unknown origin) assessed as WHGDVAVK accessible protease cleavage peptide level by LC-MS/MS analysis relative to control.
For assay [18] the target is unchanged. Kind of assay: Binding affinity to recombinant human full-length wild type B-Raf (unknown origin) assessed as NEVGVLR accessible protease cleavage peptide level by LC-MS/MS analysis relative to control.
In a further assay the test system is A-375. Kind of assay: Inhibition of cell proliferation in human A375 cells expressing B-Raf V600E mutant after 96 hrs by MTT assay. The class given is functional, cell-based.
Assay [19] addresses T1, Serine/threonine-protein kinase B-raf. Description: Binding affinity to wild type B-Raf (unknown origin).
The target is the same in assay [20]. Description: Inhibition of phosphorylation of ERK level in human SW620 cells expressing wild type B-Raf at 3 microM after 48 hrs by immunoblotting analysis. The class given is cell-based. The settings on record: SW-620. (In general: Immunoblotting shows a protein as a band on a membrane.)
Assay [21] has the same target. Description: Binding affinity to recombinant human full-length wild type B-Raf (unknown origin) assessed as SIIHRDLK accessible protease cleavage peptide level by LC-MS/MS analysis relative to control.
In assay [22] the target is T2, Serine/threonine-protein kinase B-raf. Description: Inhibition of B-Raf V600E mutant (unknown origin) assessed as inhibition of phosphorylation of peptide substrate.
In assay [23] the target is T1, Serine/threonine-protein kinase B-raf. Description: Binding affinity to recombinant human full-length wild type B-Raf (unknown origin) assessed as GDGGSTTGLSATPPASLPGSLTNVK accessible protease cleavage peptide level by LC-MS/MS analysis relative to control.
Assay [24] has the same target. Kind of assay: Inhibition of phosphorylation of MEK level in human SW620 cells expressing wild type B-Raf at 3 microM after 48 hrs by immunoblotting analysis. The class given is cell-based. The following applies: SW-620.
For assay [25] the target is unchanged. Description: Binding affinity to recombinant human full-length wild type B-Raf (unknown origin) assessed as DQIIFMVGR accessible protease cleavage peptide level by LC-MS/MS analysis relative to control.
The target is the same in assay [26]. Description: Binding affinity to recombinant human full-length wild type B-Raf (unknown origin) assessed as DSSDDWEIPDGQITVGQR accessible protease cleavage peptide level by LC-MS/MS analysis relative to control.

`CCN(C)S(=O)(=O)Nc1ccc(F)c(C(=O)c2c[nH]c3ncc(-c4ccc(Cl)cc4)cc23)c1F`: the Ratio in assay [1] was 0.42; in assay [2], 0.73; in assay [3] it was 0.3; in assay [4], 1.22; in assay [5], 0.96; in [6] it was 0.36. Moreover, the Ratio was determined as 0.94 in assay [9]; 1.27 in [10]; 1.53 in [11]; 0.41 in [12]; 0.11 in [13]; 0.93 in assay [15]. The Ratio was 0.23 in assay [16]; 0.36 in [17]; 0.12 in [18]; 0.3 in assay [21]; 1.16 in [23]; 0.48 in assay [25]. Besides, the Ratio in assay [26] came to 0.37. Moreover, the equilibrium dissociation constant (Kd) (commonly the constant that tells how readily two partners part at equilibrium) in assay [7] was determined as 1410 nM; in assay [19], 690 nM. The half-maximal effective concentration (EC50) – broadly, the concentration that produces a half-maximal response – in assay [8] was over 10000 nM. Also, in the assay on SW-620, the inhibition entry was “inactive”. For the same compound, the IC50 (in general, the concentration needed to halve the response being measured) in [14] is under 1000 nM; in assay [22], under 100 nM. Also, the inhibition entry (with A-375; in assay [20]; in assay [24]) was “Active” in each case.
For `CCN(C)S(=O)(=O)Nc1ccc(F)c(C(=O)c2c[nH]c3ncc(Cl)cc23)c1F`, the Ratio in assay [1] was determined as 0.62; in [2], 1.01; in assay [3], 0.53; in assay [4] it was 1.42; in assay [5] it was 1.26; in [6], 0.9. Moreover, the Ratio was 1.11 in assay [9]; 1.45 in assay [10]; 1.8 in [11]; 0.91 in assay [12]; 0.21 in [13]; 1.71 in assay [15]. In addition, the Ratio in assay [16] was determined as 0.5; in assay [17], 0.5; in assay [18], 0.37; in assay [21], 0.47; in [23], 1.55; in assay [25] it was 0.83. In addition, the Ratio in assay [26] was determined as 0.56. The figures for the Kd in assay [7] and in assay [19] were 550 nM and 400 nM, respectively. In assay [8], the EC50 was over 10000 nM. For the same compound, the inhibition result in the assay on SW-620 is “inactive”. The figures for the IC50 in assay [14] and in assay [22] were under 1000 nM and under 100 nM, respectively. Further, the inhibition entry (with A-375; in assay [20]; in assay [24]) was “Active” in each case.
As for `Nc1ncnc2c1ncn2[C@@H]1O[C@H](COP(=O)(O)OP(=O)(O)OP(=O)(O)O)[C@@H](O)[C@H]1O`, the Ratio in [1] worked out at 0.62; in [2], 0.78; in [3] it was 0.72; in assay [4] it was 0.95; in assay [5] it was 0.97; in assay [6], 0.81. For the same compound, the Ratio was found to be 0.64 in [9]; 0.75 in assay [10]; 0.94 in assay [11]; 0.76 in assay [12]; 0.77 in assay [13]; 0.76 in assay [15]. The Ratio was 0.54 in assay [16]; 0.75 in assay [17]; 0.34 in [18]; 1.16 in [21]; 0.68 in assay [23]; 0.57 in [25]. Besides, the Ratio in assay [26] is 0.62.
With `Nc1ncnc2c1ncn2[C@@H]1O[C@H](COP(=O)(O)OP(=O)(O)O)[C@@H](O)[C@H]1O`, the Ratio in [1] is 1.18; in [2], 1.24; in assay [3], 1.3; in assay [4], 1.42; in [5] it was 1.21; in [6], 1.22. In addition, the Ratio was determined as 1.14 in [9]; 1.34 in [10]; 1.04 in [11]; 1.27 in [12]; 1.9 in assay [13]; 1.34 in [15]. In addition, the Ratio in [16] amounted to 0.86; in [17] it was 0.99; in assay [18] it was 1.13; in [21], 0.32; in assay [23], 1.28; in [25] it was 1.36. Moreover, the Ratio in [26] was 0.83.
As to `Nc1ncnc2c1ncn2[C@@H]1O[C@H](COP(=O)(O)OP(=O)(O)NP(=O)(O)O)[C@@H](O)[C@H]1O`, the Ratio in [1] came to 0.83; in assay [2], 0.91; in assay [3] it was 0.79; in assay [4], 1.14; in assay [5], 0.89; in assay [6], 0.72. Besides, the Ratio was determined as 0.83 in assay [9]; 1 in assay [10]; 0.95 in assay [11]; 0.82 in assay [12]; 1.03 in [13]; 0.76 in [15]. In addition, the Ratio was 0.55 in assay [16]; 0.67 in assay [17]; 0.46 in assay [18]; 0.37 in assay [21]; 0.98 in assay [23]; 0.62 in [25]. In assay [26], the Ratio stood at 0.71.
